Assay results from BigSolDB 2.1.

O=C1c2cccc(Cl)c2C(=O)N1c1ccccc1
solubility (mole fraction)
Details	in 1,4-dioxane	in acetic acid	in acetone	in acetonitrile	in ethyl acetate	in isobutanol	in isopropanol	in methanol	in n-butanol	in n-propanol
288.15 K	0.00825	0.000923	0.00298	0.00196	0.0021	0.000116	7.27e-05	0.000147	0.000183	0.000162
290.65 K	0.00898	0.00104	0.00324	0.00216	0.00232	0.000128	8.36e-05	0.000171	0.000204	0.000187
293.15 K	0.00979	0.00116	0.00358	0.00236	0.00255	0.000149	9.82e-05	0.000194	0.000234	0.000226
295.65 K	0.0107	0.0013	0.00392	0.00258	0.00284	0.000167	0.000111	0.00022	0.000266	0.000266
298.15 K	0.0115	0.00145	0.00429	0.0028	0.00315	0.000189	0.000132	0.000249	0.000308	0.000311
300.65 K	0.0125	0.00159	0.00468	0.00305	0.00347	0.000221	0.000151	0.00028	0.000345	0.000353
303.15 K	0.0134	0.00175	0.00505	0.00332	0.0038	0.000258	0.000178	0.000308	0.000388	0.000411
305.65 K	0.0145	0.00189	0.00551	0.00361	0.00412	0.000296	0.000208	0.000339	0.000432	0.000468
308.15 K	0.0158	0.00206	0.00597	0.00397	0.00448	0.000341	0.000237	0.000381	0.000478	0.000527
310.65 K	0.0171	0.00225	0.00654	0.0043	0.00484	0.000392	0.000268	0.000428	0.000535	0.000593
313.15 K	0.0188	0.00248	0.00718	0.0047	0.00525	0.000457	0.000305	0.000478	0.000597	0.000668
315.65 K	0.0204	0.00273	0.00779	0.00514	0.00568	0.000526	0.000345	0.000533	0.000665	0.000747
318.15 K	0.0224	0.00299	0.00851	0.00553	0.00617	0.000599	0.000387	0.00059	0.00074	0.00083
320.65 K	0.0243	0.00328	0.00919	0.00603	0.00669	0.000679	0.000445	0.000656	0.000821	0.000917
323.15 K	0.0266	0.00364	0.00995	0.00655	0.00734	0.000762	0.00053	0.000745	0.000908	0.00103
